Consider 26 compounds from US8501729B2 (Albany Molecular Research, Inc., priority 2008, dated 2013).

Like-named read-outs stand apart in the source and are kept apart here.

Assay [1] has as its target recombinant human 5-HT3A receptors (Homo sapiens (Human), UniProt P46098). In words: agonist activity (Ca2+ fluorescence, Fluo-4) in HEK293 cells expressing the h5-HT3A receptor subunit. Type of assay: cell-based. The following applies: for activation at 10 µM: HEK293, read-out: HEK293 h5-HT3A % agonist response. As for the experimental part:
Human embryonic kidney (HEK293) cells expressing the h5-HT3A receptor subunit were seeded directly into poly-D-lysine coated, black-walled, clear bottomed, 96 well plates with approximately 1×10^5 cells per well. After 48 hrs incubation in DMEM growth media (100 μL), cells were washed twice (each 200 μL) in Hank's balanced salt solution (Invitrogen) before incubation (1 hr) with Fluo-4 acetoxymethyl (AM) ester (100 μL, 2.5 μM; Molecular Probes). Cells were washed twice (each 200 μL) in Hank's balanced salt solution and incubated for a further 30 mins in Hank's balanced salt solution (100 μL) prior to assay (25° C.). Alteration in [Ca^2+], was measured (relative fluorescence units [RFU]) using a Flexstation (excitation 488 nm and emission 515 nm; frequency of recording 3 sec). After recording for at least 80 sec, vehicle (Hank's balanced salt solution) or drug was automatically administered to the well (50 μL). Baseline was calculated from the 5 data points immediately prior to the first drug administration and the maximum response was that achieved over the 240 sec following drug administration. In all experiments the muscarinic receptor agonist carbachol (1 mM) was added 240 sec after the test drug administration.

The next assay has as its target human 5-HT3 receptor (Homo sapiens (Human), UniProt P46098). In words: radioligand binding assay (SPA format), [9-methyl-3H]BRL-43694 displacement. How it is done:
The relative affinity of the various compounds for the human 5-HT3 receptor was measured in a radioligand binding assay, using a scintillation proximity assay (SPA) format. Test compounds were dissolved to 10 mM in 100% DMSO, then serially diluted at 10× assay concentrations in 100% DMSO in 96-well polypropylene plates and further diluted to 4× assay concentrations with the assay buffer. […] Binding reactions were set up in wells of PicoPlates-96 (Perkin Elmer, Waltham, Mass.) by adding consecutively 50 μL, of each competing compound or buffer, SPA beads, the radioligand and 5-HT3 receptor membranes. After an overnight incubation at room temperature on a Nutator mixer, plates were centrifuged for 15 min at 1,500 rpm, followed by incubation in the dark for 30 min. Radioactivity was counted in the TopCount microplate counter (Perkin Elmer) for 5 min. […] Specific binding was determined by subtracting nonspecific binding from total binding. All experiments were performed in duplicate using ten concentrations of competing ligand, with ondansetron included as a control in every run. IC50 values were determined from specific binding data using XLfit4.1 curve fitting software from IDBS Ltd. The inhibition constant (Ki) was calculated from the Cheng Prusoff equation: (Ki=IC50/(1+(L/KD)), where L=concentration of radioligand in the assay, and KD=affinity of the radioligand for the receptor.

Another assay addresses 5-HT3 receptors (Mus musculus (Mouse), UniProt P23979). In words: von Bezold-Jarisch model in vivo: inhibition of 5-HT induced bradycardia. The following applies: 60 min before 5-HT 0.1 mg/kg IV, highest oral dose tested. As for the experimental part:
This is a well characterized and widely used model to assess 5-HT3 receptor function in vivo (King et al., 5-Hydroxtryptamine-3 Receptor Antagonists, CRC Press, pp. 74-75 (1993), which is hereby incorporated by reference in its entirety). Certain compounds (Table 1) were evaluated for their ability to inhibit serotonin induced bradycardia in vivo in the mouse (Saxena et al., Arch. Int. Pharmacodyn., 277:235-252 (1985), which is hereby incorporated by reference in its entirety). Test substances and vehicle [2% Tween 80] were each administered orally to a group of 5 male CD-1(Crl.) mice each weighing 24±2 g. A dosing volume of 10 mL/kg was used. Sixty minutes later, 5-HT (0.1 mg/kg IV)-induced bradycardia was recorded in urethane (2250 mg/kg IP, given 10 minutes before 5-HT)-anesthetized animals.

Where [2] appears, read: human 5-HT3 receptor membranes, 10 nM [3H]BRL-43694, Ki from Cheng Prusoff equation, read-out: h5-HT3A Ki.

Chain of 5-HT3 receptors (P23979 24-489): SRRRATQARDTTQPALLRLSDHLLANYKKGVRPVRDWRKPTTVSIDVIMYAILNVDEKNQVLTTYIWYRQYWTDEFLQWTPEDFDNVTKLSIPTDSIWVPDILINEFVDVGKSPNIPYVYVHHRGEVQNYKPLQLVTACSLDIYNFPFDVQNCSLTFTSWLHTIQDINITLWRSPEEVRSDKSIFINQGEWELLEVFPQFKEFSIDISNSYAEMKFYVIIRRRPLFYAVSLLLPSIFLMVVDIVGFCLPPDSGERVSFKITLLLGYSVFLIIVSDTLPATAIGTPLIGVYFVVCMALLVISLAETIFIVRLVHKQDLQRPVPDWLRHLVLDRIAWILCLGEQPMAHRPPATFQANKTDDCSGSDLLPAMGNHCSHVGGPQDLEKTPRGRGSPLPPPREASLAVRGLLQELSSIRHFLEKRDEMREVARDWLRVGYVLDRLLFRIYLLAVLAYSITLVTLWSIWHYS
Chain of human 5-HT3 receptor (P46098 24-478): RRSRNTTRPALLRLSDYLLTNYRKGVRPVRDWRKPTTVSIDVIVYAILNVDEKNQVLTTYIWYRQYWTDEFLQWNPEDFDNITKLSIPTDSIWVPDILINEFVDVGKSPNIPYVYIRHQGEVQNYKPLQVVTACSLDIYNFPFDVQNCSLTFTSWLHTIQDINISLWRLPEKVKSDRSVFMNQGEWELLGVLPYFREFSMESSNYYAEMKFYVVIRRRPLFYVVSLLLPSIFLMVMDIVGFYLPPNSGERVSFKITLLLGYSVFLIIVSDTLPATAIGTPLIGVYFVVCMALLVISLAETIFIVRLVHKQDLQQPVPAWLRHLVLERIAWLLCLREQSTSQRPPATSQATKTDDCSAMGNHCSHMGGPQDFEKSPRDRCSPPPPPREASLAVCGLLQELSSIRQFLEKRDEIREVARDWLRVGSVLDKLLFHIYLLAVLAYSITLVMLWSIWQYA
Chain of recombinant human 5-HT3A receptors (P46098 24-478): as above

One may read the Ki as a measure of affinity in units of concentration, obtained from inhibition or displacement. Take `Cn1nc2c3c(cccc31)C(=O)N([C@H]1CN3CCC1CC3)C2` [Example 12, (R)-2-Methyl-7-(quinuclidin-3-yl)-7,8-dihydropyrazolo[3,4,5-de]isoquinolin-6(2H)-one]: the activation at 10 µM in assay [1] came out at 6%. Also, at human 5-HT3 receptor, the Ki turned out to be 2 nM. The compound `O=C1c2cccc3c2c(nn3-c2ccc(Cl)cc2)CN1[C@H]1CN2CCC1CC2` [Example 19] came in with a Ki on human 5-HT3 receptor of 68 nM. The same measure, in the same setting: for `Cn1nc2c3c(cccc31)C(=O)N([C@@H]1CN3CCC1CC3)C2` [Example 6, (S)-2-Methyl-7-(quinuclidin-3-yl)-7,8-dihydropyrazolo[3,4,5-de]isoquinolin-6(2H)-one] the value was 1 nM. As a reminder, the inhibition is the relative decrease from the control value, in per cent. `O=C1c2cccc3c2c(cn3-c2ccc(F)cc2)CCN1[C@H]1CN2CCC1CC2` [Example 36, (R)-6-(4-fluorophenyl)-2-(quinuclidin-3-yl)-2,3,4,6-tetrahydro-1H-azepino[5,4,3-cd]indol-1-one]: the inhibition at 10 µM at human 5-HT3 receptor (10 μM, read-out: h5-HT3A inhibition @ 10 μM) was found to be 49%. For the compound `Cn1cc2c3c(cccc31)C(=O)N([C@@H]1CN3CCC1CC3)C2` [Example 4, (S)-5-Methyl-2-(quinuclidin-8-yl)-2,3-dihydropyrrolo[4,3,2-de]isoquinolin-1(5H)-one], the Ki at human 5-HT3 receptor (setting [2]) stood at 1 nM. As for `Cn1cc(C(=O)[C@@H]2CCc3nc[nH]c3C2)c2ccccc21` [Ramosetron, reference compound], the “Inhibition of 5-HT Induced Bradycardia in Mice” value (“Inhibition … in Mice” for short) at 5-HT3 receptors (0.1 mg/kg oral) was 77% @ 0.1 mg/kg. For the same compound, on human 5-HT3 receptor (setting [2]), the Ki is 0.06 nM. The compound `O=C1c2cccc3c2c(nn3Cc2ccccc2)CN1[C@H]1CN2CCC1CC2` [Example 17] returned a Ki on human 5-HT3 receptor of 5 nM. Regarding `O=C1c2cccc3[nH]cc(c23)CCN1[C@@H]1CN2CCC1CC2` [Example 29, (S)-2-(Quinuclidin-3-yl)-2,3,4,6-tetrahydro-1H-azepino[5,4,3-cd]indol-1-one], the “HEK293 h5-HT3A % agonist response” value in assay [1] (at 10 μM, normalized to the response of 5-HT (100% at 3 μM), NR = no response) amounted to 17%. Further, the “Inhibition … in Mice” value at 5-HT3 receptors (1 mg/kg oral) stood at 94% @ 1 mg/kg. Further, the Ki at human 5-HT3 receptor (setting [2]) was found to be 3 nM. Take `Cn1cc2c3c(cccc31)C(=O)N([C@@H]1CN3CCC1CC3)CC2` [Example 31, (S)-6-methyl-2-(quinuclidin-3-yl)-2,3,4,6-tetrahydro-1H-azepino[5,4,3-cd]indol-1-one]: the activation at 10 µM in assay [1] was determined as 5%. For the same compound, the Ki on human 5-HT3 receptor (setting [2]) was found to be 1 nM. Regarding `CN1CC2CCCC1CC(N1Cc3cn(C)c4cccc(c34)C1=O)C2` (stereo not drawn) [Example 5, Endo-5-methyl-2-(9-methyl-9-azabicyclo[3.3.1]nonan-3-yl)-2,3-dihydropyrrolo[4,3,2-de]isoquinolin-1(5H)-one], at human 5-HT3 receptor (setting [2]), the Ki came to 13 nM. For `O=C1c2cccc3[nH]cc(c23)CCN1[C@H]1CN2CCC1CC2` [Example 33, (R)-2-(Quinuclidin-3-yl)-2,3,4,6-tetrahydro-1H-azepino[5,4,3-cd]indol-1-one], the activation at 10 µM in assay [1] is 14%. For the same compound, the Ki on human 5-HT3 receptor (setting [2]) came out at 49 nM.

Take `O=C1c2cc(Br)cc3[nH]nc(c23)CN1[C@H]1CN2CCC1CC2` [Example 21]: on human 5-HT3 receptor, the Ki worked out at 1 nM. Regarding `CN1C2CCCC1CC(N1CCc3cn(C)c4cccc(c34)C1=O)C2` (stereo not drawn) [Example 37, Endo-6-methyl-2-(9-methyl-9-azabicyclo[3.3.1]nonan-3-yl)-2,3,4,6-tetrahydro-1H-azepino[5,4,3-cd]indol-1-one], the Ki at human 5-HT3 receptor (setting [2]) was 267 nM.

`CCn1nc2c3c(cccc31)C(=O)N([C@H]1CN3CCC1CC3)C2` [Example 14, (R)-2-Ethyl-7-(quinuclidin-3-yl)-7,8-dihydropyrazolo[3,4,5-de]isoquinolin-6(2H)-one]: in assay [1], the activation at 10 µM was determined as 4%. The same measure, in the same setting: the same measure for `Cn1nc2c3c(cc(F)cc31)C(=O)N([C@H]1CN3CCC1CC3)C2` [Example 13]: 6%. Regarding `O=C1c2cccc3c2c(cn3Cc2ccccc2)CCN1[C@H]1CN2CCC1CC2` [Example 35, (R)-6-benzyl-2-(quinuclidin-3-yl)-2,3,4,6-tetrahydro-1H-azepino[5,4,3-cd]indol-1-one], the Ki at human 5-HT3 receptor (setting [2]) was determined as 13 nM. As for `O=C1c2cccc3[nH]nc(c23)CN1[C@H]1CN2CCC1CC2` [Example 16, (R)-7-(Quinuclidin-3-yl)-7,8-dihydropyrazolo[3,4,5-de]isoquinolin-6(2H)-one], in assay [1], the activation at 10 µM was 35%. The same measure, in the same setting: the same measure for `CC(C)n1nc2c3c(cccc31)C(=O)N([C@H]1CN3CCC1CC3)C2` [Example 15, (R)-2-Isopropyl-7-(quinuclidin-3-yl)-7,8-dihydropyrazolo[3,4,5-de]isoquinolin-6(2H)-one]: 3%. Take `Cn1cc2c3c(cccc31)C(=O)N([C@H]1CN3CCC1CC3)CC2` [Example 34, (R)-6-methyl-2-(quinuclidin-3-yl)-2,3,4,6-tetrahydro-1H-azepino[5,4,3-cd]indol-1-one]: in assay [1], the activation at 10 µM was 13%. Moreover, the “Inhibition … in Mice” value on 5-HT3 receptors (3 mg/kg oral) came to 88% @ 3 mg/kg. In addition, the Ki at human 5-HT3 receptor (setting [2]) was found to be 8 nM.

The compound `CN1C2CCC1CC(N1Cc3nn(C)c4cccc(c34)C1=O)C2` (stereo not drawn) [Example 38, Endo-2-methyl-7-(8-methyl-8-azabicyclo[3.2.1]octan-3-yl)-7,8-dihydropyrazolo[3,4,5-de]isoquinolin-6(2H)-one] had a Ki at human 5-HT3 receptor of 59 nM. Compound `CC(C)Cn1nc2c3c(cccc31)C(=O)N([C@@H]1CN3CCC1CC3)C2` [Example 9] returned a Ki at human 5-HT3 receptor of 2 nM.

At human 5-HT3 receptor, `CN1C2CCCC1CC(N1Cc3nn(C)c4cccc(c34)C1=O)C2` (stereo not drawn) [Example 22, 7-(Endo-N-(9-methyl-9-azabicyclo[3.3.1]nonan-3-yl))-2-methyl-7,8-dihydropyrazolo[3,4,5-de]isoquinolin-6(2H)-one] had a Ki of 34 nM. Turning to `Cc1[nH]cnc1CN1CCc2c(c3ccccc3n2C)C1=O` [Alosetron, reference compound], the “Inhibition … in Mice” value at 5-HT3 receptors (1 mg/kg oral) is 95% @ 1 mg/kg. Take `O=C1c2cccc3c2c(cn3Cc2ccccc2)CCN1[C@@H]1CN2CCC1CC2` [Example 32, (S)-6-benzyl-2-(quinuclidin-3-yl)-2,3,4,6-tetrahydro-1H-azepino[5,4,3-cd]indol-1-one]: on human 5-HT3 receptor (setting [2]), the Ki was found to be 1 nM. `CCn1nc2c3c(cccc31)C(=O)N([C@@H]1CN3CCC1CC3)C2` [Example 8, (S)-2-ethyl-7-(quinuclidin-3-yl)-7,8-dihydropyrazolo[3,4,5-de]isoquinolin-6(2H)-one] had a Ki at human 5-HT3 receptor of 1 nM.

In the case of `COc1ccc(-n2nc3c4c(cccc42)C(=O)N([C@H]2CN4CCC2CC4)C3)cc1` [Example 20], the Ki on human 5-HT3 receptor stood at 57 nM.
